Measurements published in patent US10077261B2, “Imidazolin-5-one derivative useful as FASN inhibitors for the treatment of cancer” (Janssen Pharmaceutica NV, priority 2012, dated 2018).

Molecular target: T1, hFASN enzyme (full length) (Homo sapiens, UniProt P49327)
T1 construct: 10 μL hFASN enzyme (full length, 300 ng, purified in house); made in house
Assay: Fatty Acid Synthase (FASN) inhibition scintillation proximity assay
Type: biochemical
Conditions: for inhibition at 10 µM: read-out: Human FASN % inhibition @ 10 μM, 10 μM test compound; for IC50: read-out: Human FASN pIC50 (converted)
Procedure, shortened: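 Full-length in-house purified enzyme (300 ng) was tested in 100 mM KH2PO4 pH 7.5, 1 mM DTT with ³H-acetyl-CoA and malonyl-CoA as substrates; compounds ranged 0.01–30 μM. Reactions were stopped with streptavidin imaging beads, read by LEADseeker at 610 nm, and fitted to a 4-parameter logistic curve.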

T1 sequence (P49327 whole entry): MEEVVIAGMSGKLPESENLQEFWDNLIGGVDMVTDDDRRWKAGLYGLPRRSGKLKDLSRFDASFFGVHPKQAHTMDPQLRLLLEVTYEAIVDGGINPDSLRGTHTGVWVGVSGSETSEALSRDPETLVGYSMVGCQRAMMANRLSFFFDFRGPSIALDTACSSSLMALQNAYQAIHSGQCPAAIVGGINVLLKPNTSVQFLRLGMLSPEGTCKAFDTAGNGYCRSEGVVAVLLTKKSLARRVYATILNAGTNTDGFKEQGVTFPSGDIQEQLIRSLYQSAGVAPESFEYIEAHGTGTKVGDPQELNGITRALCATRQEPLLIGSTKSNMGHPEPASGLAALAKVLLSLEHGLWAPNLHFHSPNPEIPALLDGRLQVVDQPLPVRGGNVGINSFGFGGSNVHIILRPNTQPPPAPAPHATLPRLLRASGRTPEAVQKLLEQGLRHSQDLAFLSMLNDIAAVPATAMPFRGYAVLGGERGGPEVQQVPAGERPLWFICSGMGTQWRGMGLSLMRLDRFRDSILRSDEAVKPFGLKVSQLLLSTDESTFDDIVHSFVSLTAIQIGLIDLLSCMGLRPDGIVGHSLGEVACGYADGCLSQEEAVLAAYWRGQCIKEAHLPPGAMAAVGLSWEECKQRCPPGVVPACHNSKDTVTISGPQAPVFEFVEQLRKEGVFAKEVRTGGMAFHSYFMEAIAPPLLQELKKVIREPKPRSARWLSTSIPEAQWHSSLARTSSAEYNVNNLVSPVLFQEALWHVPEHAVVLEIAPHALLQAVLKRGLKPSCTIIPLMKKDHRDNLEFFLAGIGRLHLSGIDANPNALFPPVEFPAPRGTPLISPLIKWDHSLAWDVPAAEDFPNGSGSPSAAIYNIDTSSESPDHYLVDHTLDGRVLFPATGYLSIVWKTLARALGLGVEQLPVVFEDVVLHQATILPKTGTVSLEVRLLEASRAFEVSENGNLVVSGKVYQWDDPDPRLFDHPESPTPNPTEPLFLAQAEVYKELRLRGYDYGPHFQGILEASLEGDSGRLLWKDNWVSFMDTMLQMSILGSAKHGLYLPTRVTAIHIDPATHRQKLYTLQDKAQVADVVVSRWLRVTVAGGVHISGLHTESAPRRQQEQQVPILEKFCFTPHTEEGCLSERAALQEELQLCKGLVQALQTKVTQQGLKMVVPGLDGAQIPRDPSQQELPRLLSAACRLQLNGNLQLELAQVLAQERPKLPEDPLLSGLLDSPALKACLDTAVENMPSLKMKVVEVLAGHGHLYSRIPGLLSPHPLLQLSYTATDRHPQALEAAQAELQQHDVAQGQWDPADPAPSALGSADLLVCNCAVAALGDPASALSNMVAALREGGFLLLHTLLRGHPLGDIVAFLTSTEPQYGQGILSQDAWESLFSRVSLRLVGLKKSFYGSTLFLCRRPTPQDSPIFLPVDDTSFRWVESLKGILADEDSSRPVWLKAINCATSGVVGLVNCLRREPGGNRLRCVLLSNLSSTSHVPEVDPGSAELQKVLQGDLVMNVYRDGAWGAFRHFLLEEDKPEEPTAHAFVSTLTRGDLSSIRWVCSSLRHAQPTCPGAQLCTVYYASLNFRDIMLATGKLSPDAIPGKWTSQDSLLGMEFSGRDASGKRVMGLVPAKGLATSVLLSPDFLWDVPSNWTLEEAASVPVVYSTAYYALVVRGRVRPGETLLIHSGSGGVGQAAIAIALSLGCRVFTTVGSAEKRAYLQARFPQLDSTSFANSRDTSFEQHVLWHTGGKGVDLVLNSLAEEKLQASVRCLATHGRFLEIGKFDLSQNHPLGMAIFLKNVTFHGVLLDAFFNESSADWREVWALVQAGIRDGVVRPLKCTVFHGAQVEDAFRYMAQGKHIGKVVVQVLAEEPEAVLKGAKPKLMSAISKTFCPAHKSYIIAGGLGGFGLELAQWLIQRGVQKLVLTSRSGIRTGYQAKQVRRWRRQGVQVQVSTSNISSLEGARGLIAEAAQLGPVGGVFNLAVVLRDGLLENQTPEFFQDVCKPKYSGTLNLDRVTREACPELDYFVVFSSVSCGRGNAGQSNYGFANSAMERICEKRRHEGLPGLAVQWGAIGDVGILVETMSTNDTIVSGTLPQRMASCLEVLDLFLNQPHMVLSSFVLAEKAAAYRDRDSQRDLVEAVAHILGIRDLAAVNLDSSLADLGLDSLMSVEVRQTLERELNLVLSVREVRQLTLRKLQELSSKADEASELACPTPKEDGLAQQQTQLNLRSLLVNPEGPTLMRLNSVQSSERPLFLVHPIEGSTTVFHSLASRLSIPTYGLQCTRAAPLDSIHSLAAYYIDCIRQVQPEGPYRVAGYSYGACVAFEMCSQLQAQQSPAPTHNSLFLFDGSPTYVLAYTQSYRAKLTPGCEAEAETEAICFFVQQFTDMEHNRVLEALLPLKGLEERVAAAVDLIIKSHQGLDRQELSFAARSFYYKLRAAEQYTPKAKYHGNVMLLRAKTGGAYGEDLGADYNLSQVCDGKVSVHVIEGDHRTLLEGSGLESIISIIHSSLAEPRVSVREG

Row | inhibition at 10 µM [%] | IC50 [µM] | Compound
1 | 5 | > 10 | COC(=O)N1CC(CN2C(=O)C3(CCOCC3)N=C2c2ccc(-c3ccc4c(cnn4C)c3)cc2)C1 [compound 941, methyl 3-((2-(4-(1-methyl-1H-indazol-5-yl)phenyl)-4-oxo-8-oxa-1,3-diazaspiro[4.5]dec-1-en-3-yl)methyl)azetidine-1-carboxylate]
2 | 56 | 7.24 | O=C(C1CC1)N1CCC[C@@H](CN2C(=O)C3(CC3)N=C2c2ccc(-c3ccc4[nH]ncc4c3)cc2)C1 [compound 389, 6-{[(3R)-1-(Cyclopropylcarbonyl)piperidin-3-yl]methyl}-5-[4-(1H-indazol-5-yl)phenyl]-4,6-diazaspiro[2.4]hept-4-en-7-one]
3 | 42.7 | > 10 | O=C(C1CC1)N1CC[C@@H](CN2C(=O)C3(CCCC3)N=C2c2ccc(-c3ccccn3)cc2)C1 [compound 18, 3-{[(3R)-1-(Cyclopropylcarbonyl)pyrrolidin-3-yl]methyl}-2-(4-pyridin-2-ylphenyl)-1,3-diazaspiro[4.4]non-1-en-4-one]
4 | 114 | 0.224 | Cn1ncc2cc(-c3ccc(C4=NC5(CCN(C(=O)C6CC6)CC5)C(=O)N4C[C@@H]4CCN(C(=O)C5CC5)C4)cc3)ccc21 [compound 140, 8-(Cyclopropylcarbonyl)-3-{[(3R)-1-(cyclopropylcarbonyl)pyrrolidin-3-yl]methyl}-2-[4-(1-methyl-1H-indazol-5-yl)phenyl]-1,3,8-triazaspiro[4.5]dec-1-en-4-one]
5 | 58.7 | 5.62 | Cc1ccc(-c2ccc(C3=NC4(CC4)C(=O)N3CC3CCN(C(=O)C4CC4)CC3)cc2)cc1 [compound 97, 6-{[1-(Cyclopropylcarbonyl)piperidin-4-yl]methyl}-5-(4′-methylbiphenyl-4-yl)-4,6-diazaspiro[2.4]hept-4-en-7-one]
6 | 61.4 | 4.68 | COc1ccc(-c2ccc(C3=NC4(CC4)C(=O)N3CC3CCN(C(=O)C4CC4)CC3)cc2)cc1 [compound 99]
7 | 90.7 | 1.17 | CC(C)C(=O)N1CCC2(CC1)N=C(c1ccc(-c3ccc4occc4c3)cc1)N(CC1CN(C(=O)C3CC3)C1)C2=O [compound 129, 2-[4-(1-Benzofuran-5-yl)phenyl]-3-{[1-(cyclopropylcarbonyl)azetidin-3-yl]methyl}-8-(2-methylpropanoyl)-1,3,8-triazaspiro[4.5]dec-1-en-4-one]
8 | 112 | 0.174 | CC(C)C(=O)N1CCC2(CC1)N=C(c1ccc(-c3ccc4c(cnn4C)c3)cc1)N(C[C@@H]1CCN(C(=O)C3CC3)C1)C2=O [compound 139, (R)-3-((1-(cyclopropanecarbonyl)pyrrolidin-3-yl)methyl)-8-isobutyryl-2-(4-(1-methyl-1H-indazol-5-yl)phenyl)-1,3,8-triazaspiro[4.5]dec-1-en-4-one]
9 | 108 | 0.229 | CN(C)CC(=O)N1CCC2(CC1)N=C(c1ccc(-c3ccc4[nH]ncc4c3)cc1)N(C[C@@H]1CCN(C(=O)C3CC3)C1)C2=O [compound 165, 3-{[(3R)-1-(Cyclopropylcarbonyl)pyrrolidin-3-yl]methyl}-8-(N,N-dimethylglycyl)-2-[4-(1H-indazol-5-yl)phenyl]-1,3,8-triazaspiro[4.5]dec-1-en-4-one]
10 | 67 | ~4.47 | O=C(C1CC1)N1CC(CN2C(=O)C3(CCN(C(=O)C(F)(F)F)CC3)N=C2c2ccc(-c3ccc4[nH]ncc4c3)cc2)C1 [compound 766, 3-{[1-(Cyclopropylcarbonyl)azetidin-3-yl]methyl}-2-[4-(1H-indazol-5-yl)phenyl]-8-(trifluoroacetyl)-1,3,8-triazaspiro[4.5]dec-1-en-4-one]
11 | 61.6 | 7.24 | O=C(C1CC1)N1CCC(CN2C(=O)C3(CC3)N=C2c2ccc(-c3cccnc3)cc2)CC1 [compound 6, 6-{[1-(Cyclopropylcarbonyl)piperidin-4-yl]methyl}-5-(4-pyridin-3-ylphenyl)-4,6-diazaspiro[2.4]hept-4-en-7-one]

Second part, the molecule before the results:

Row | Compound | inhibition at 10 µM [%] | IC50 [µM]
12 | Cn1cc(-c2ccc(-c3ccc(C4=NC5(CCOCC5)C(=O)N4CC4CN(C(=O)N5CCCC5)C4)cc3)cc2)cn1 [compound 697, 2-[4′-(1-Methyl-1H-pyrazol-4-yl)biphenyl-4-yl]-3-{[1-(pyrrolidin-1-ylcarbonyl)azetidin-3-yl]methyl}-8-oxa-1,3-diazaspiro[4.5]dec-1-en-4-one] | 58 | 5.89
13 | Cc1cc(C2=NC3(CC3)C(=O)N2CC2CN(C(=O)C3CC3)C2)ccc1-c1ccc2sc(C)c(C)c2c1 [compound 447, 6-{[1-(Cyclopropylcarbonyl)azetidin-3-yl]methyl}-5-[4-(2,3-dimethyl-1-benzothiophen-5-yl)-3-methylphenyl]-4,6-diazaspiro[2.4]hept-4-en-7-one] | 79 | 1.2
14 | CS(=O)(=O)N1CC[C@@H](CN2C(=O)C3(CCOC3)N=C2c2ccc(-c3ccc4occc4c3)cc2)C1 (stereo partly drawn) [compound 914, 2-(4-(benzofuran-5-yl)phenyl)-3-(((S)-1-(methylsulfonyl)pyrrolidin-3-yl)methyl)-7-oxa-1,3-diazaspiro[4.4]non-1-en-4-one] | 1 | > 10
15 | COC(=O)N1CC2(C1)N=C(c1ccc(-c3ccc4cccnc4c3)cc1)N(C[C@@H]1CCN(C(=O)N3CCCC3)C1)C2=O [compound 732, Methyl 8-oxo-7-{[(3S)-1-(pyrrolidin-1-ylcarbonyl)pyrrolidin-3-yl]methyl}-6-(4-quinolin-7-ylphenyl)-2,5,7-triazaspiro[3.4]oct-5-ene-2-carboxylate] | 88 | ~1.2
16 | COC(=O)N1CC2(C1)N=C(c1ccc(-c3ccc(-c4cnn(C)c4)cc3)cc1)N(C[C@@H]1CCN(C(=O)N3CCCC3)C1)C2=O [compound 924, (S)-methyl 6-(4′-(1-methyl-1H-pyrazol-4-yl)-[1,1′-biphenyl]-4-yl)-8-oxo-7-((1-(pyrrolidine-1-carbonyl)pyrrolidin-3-yl)metrhyl)-2,5,7-triazaspiro[3.4]oct-5-ene-2-carboxylate] | 41 | > 10
17 | COC(=O)N1CC[C@@H](CN2C(=O)C3(CCOC3)N=C2c2ccc(-c3ccc4occc4c3)cc2)C1 (stereo partly drawn) [compound 954, (3S)-methyl 3-((2-(4-(benzofuran-5-yl)phenyl)-4-oxo-7-oxa-1,3-diazaspiro[4.4]non-1-en-3-yl)methyl)pyrrolidine-1-carboxylate] | 27 | > 10
18 | O=C(c1nccs1)N1CCC(CN2C(=O)C3(CCOC3)N=C2c2ccc(-c3ccc4occc4c3)cc2)C1 (centres unmarked) [compound 934, 2-(4-(benzofuran-5-yl)phenyl)-3-((1-(thiazole-2-carbonyl)pyrrolidin-3-yl)methyl)-7-oxa-1,3-diazaspiro[4.4]non-1-en-4-one] | 27 | > 10
19 | O=C(N1CCCC1)N1CC[C@@H](CN2C(=O)C3(CCOC3)N=C2c2ccc(-c3ccc4occc4c3)cc2)C1 (stereo partly drawn) [compound 689, 2-[4-(1-Benzofuran-5-yl)phenyl]-3-{[(3S)-1-(pyrrolidin-1-ylcarbonyl)pyrrolidin-3-yl]methyl}-7-oxa-1,3-diazaspiro[4.4]non-1-en-4-one] | 61 | 4.07
